Data as given in ChEMBL document CHEMBL4270527, “Discovery of phenylsulfonylfuroxan derivatives as gamma globin inducers by histone acetylation” (Eur J Med Chem, 2018).
Active and inactive are the calls of the source. The rule behind the calls is not given here.

Experiments:
Macrophage [1] = assay: Cytotoxicity against LPS-induced Swiss albino mouse macrophages assessed as cell viability at 6.2 to 50 uM after 24 hrs by MTT assay relative to control; format: functional
Platelet = assay: Antiplatelet activity in Wistar rat platelet rich plasma assessed as inhibition of ADP-induced platelet aggregation at 100 uM pretreated for 1 min followed by ADP addition by turbidimetric method relative to control; format: functional
Mus musculus = assay: Antinociceptive activity in Swiss albino mouse assessed as decrease in number of acetic acid-induced abdominal constriction at 100 umol/kg, po pretreated for 1 hr followed by acetic-acid challenge for 10 mins measured for 20 mins relative to control; format: functional; set-up: scale not given: the % may be the effect or the level left
Macrophage [2] = assay: Inhibition of LPS-induced TNFalpha production in Swiss albino mouse macrophages at 50 uM after 24 hrs by ELISA relative to control; format: functional
Macrophage [3] = assay: Inhibition of LPS-induced TNFalpha production in Swiss albino mouse macrophages at 25 uM after 24 hrs by ELISA relative to control; format: functional
Macrophage [4] = assay: Inhibition of LPS-induced TNFalpha production in Swiss albino mouse macrophages at 12.5 uM after 24 hrs by ELISA relative to control; format: functional
CHO-K1 [5] = assay: Cytotoxicity against CHOK1 cells assessed as reduction in cell viability at 25 uM after 24 hrs by XTT assay relative to control; format: cell-based, Cricetulus griseus; conditions: chinese hamster, cho-k1, 24 h
CHO-K1 [6] = assay: Mutagenicity in CHOK1 cells assessed as frequency of micronucleus binucleated cells at 25 to 100 uM after 24 hrs by Giemsa staining based microscopic analysis; format: toxicity, cell-based, Cricetulus griseus; conditions: chinese hamster, cho-k1, 24 h
CHO-K1 [7] = assay: Mutagenicity in CHOK1 cells assessed as nuclear division index at 100 uM after 24 hrs by Giemsa staining based microscopic analysis (reference value: 1.701 +/- 0.002); format: toxicity, cell-based, Cricetulus griseus; conditions: chinese hamster, cho-k1, 24 h
[8] = target: Histone H4 (Homo sapiens) (UniProt P62805); assay: Activation of histone H4 acetylation in human K562 cells at 6.7 to 100 uM after 24 hrs by Western blot analysis; format: cell-based
CHO-K1 [9] = assay: Genotoxicity in CHOK1 cells assessed as increase in commet tail at 100 uM after 24 hrs by commet assay; format: toxicity, cell-based, Cricetulus griseus; conditions: chinese hamster, cho-k1, 24 h
CHO-K1 [10] = assay: Mutagenicity in CHOK1 cells assessed as nuclear division index at 50 uM after 24 hrs by Giemsa staining based microscopic analysis (reference value: 1.701 +/- 0.002); format: toxicity, cell-based, Cricetulus griseus; conditions: chinese hamster, cho-k1, 24 h
CHO-K1 [11] = assay: Cytotoxicity against CHOK1 cells assessed as reduction in cell viability at 100 uM after 24 hrs by XTT assay relative to control; format: cell-based, Cricetulus griseus; conditions: chinese hamster, cho-k1, 24 h
CHO-K1 [12] = assay: Genotoxicity in CHOK1 cells assessed as increase in tail moment at 25 to 100 uM after 24 hrs by commet assay; format: toxicity, cell-based, Cricetulus griseus; conditions: chinese hamster, cho-k1, 24 h
[13] = Stability of the compound in pH 7.4 phosphate buffered saline assessed as compound hydrolysis after 4 hrs by UV-HPLC analysis; format: physicochemical; conditions: read-out: Drug degradation
CHO-K1 [14] = assay: Mutagenicity in CHOK1 cells assessed as frequency of micronucleus at 25 to 100 uM after 24 hrs by Giemsa staining based microscopic analysis; format: toxicity, cell-based, Cricetulus griseus; conditions: chinese hamster, cho-k1, 24 h
K562 [15] = assay: Activation of histone H3/H4 acetylation in human K562 cells assessed as increase in […] expression at 25 to 100 uM after 96 hrs by Western blot analysis; format: cell-based
CHO-K1 [16] = assay: Mutagenicity in CHOK1 cells assessed as nuclear division index at 25 uM after 24 hrs by Giemsa staining based microscopic analysis (reference value: 1.701 +/- 0.002); format: toxicity, cell-based, Cricetulus griseus; conditions: chinese hamster, cho-k1, 24 h
[17] = target: MAP kinase p38 (Homo sapiens) (UniProt O15264+Q15759+Q16539+P53778); assay: Activation of p38 MAPK phosphorylation in human K562 cells at 6.7 to 100 uM by Western blot analysis; format: cell-based
Macrophage [18] = assay: Inhibition of LPS-induced TNFalpha production in Swiss albino mouse macrophages at 6.2 uM after 24 hrs by ELISA relative to control; format: functional
K562 [19] = assay: Activation of histone H3 acetylation in human K562 cells at 6.7 to 100 uM after 24 hrs by Western blot analysis; format: cell-based
CHO-K1 [20] = assay: Cytotoxicity against CHOK1 cells assessed as reduction in cell viability at 50 uM after 24 hrs by XTT assay relative to control; format: cell-based, Cricetulus griseus; conditions: chinese hamster, cho-k1, 24 h
CHO-K1 [21] = assay: Mutagenicity in CHOK1 cells assessed as nuclear division index at 0.3 ug/ml after 24 hrs by Giemsa staining based microscopic analysis (reference value: 1.701 +/- 0.002); format: toxicity, cell-based, Cricetulus griseus; conditions: chinese hamster, cho-k1, 24 h
K562 [22] = assay: Activation of histone H3/H4 acetylation in human K562 cells assessed as induction of […] production at 100 uM after 96 hrs by Western blot analysis; format: cell-based
K562 [23] = assay: Activation of histone H3 acetylation in human K562 cells at 100 uM after 24 hrs by Western blot analysis; format: cell-based
K562 [24] = assay: Activation of histone H3/H4 acetylation in human K562 cells assessed as increase in […] expression at 6.7 to 12.5 uM after 48 hrs by Western blot analysis; format: cell-based

## O=C(N/N=C/c1ccc2no[n+]([O-])c2c1)c1cccc(N2C(=O)c3ccccc3C2=O)c1
Macrophage [1]
  Activity: >75%
Platelet
  inhibition at 100 µM: 1.2%
Mus musculus
  Activity: 40.5%

## O=C1CCC(N2C(=O)c3ccccc3C2=O)C(=O)N1 (configuration not stated) [THALIDOMIDE]
Macrophage [2]
  inhibition at 50 µM: 31.7%

## O=C(N/N=C/c1ccc2no[n+]([O-])c2c1)c1ccc(N2C(=O)c3ccccc3C2=O)cc1
Macrophage [1]
  Activity: >75%
Macrophage [2]
  inhibition at 50 µM: 54.5%
Platelet
  inhibition at 100 µM: 2.8%
Macrophage [3]
  inhibition at 25 µM: 99.5%
Macrophage [4]
  inhibition at 12.5 µM: 99.9%
Mus musculus
  Activity: 48.3%

## O=C(N/N=C/c1c(-c2ccccc2)no[n+]1[O-])c1ccc(N2C(=O)c3ccccc3C2=O)cc1
Macrophage [1]
  Activity: >75%
Platelet
  inhibition at 100 µM: 26.5%
Mus musculus
  Activity: 44.8%

## O=C(N/N=C/c1ccc(Oc2no[n+]([O-])c2S(=O)(=O)c2ccccc2)cc1)c1ccc(N2C(=O)c3ccccc3C2=O)cc1
Macrophage [1]
  Activity: >75%
CHO-K1 [5]
  Activity: 4%
Platelet
  inhibition at 100 µM: 76.1%
CHO-K1 [6]
  Activity: Non-Toxic
CHO-K1 [7]
  Activity_index: 1.697
[8]
  Activity: inactive
CHO-K1 [9]
  Activity: Non-Toxic
CHO-K1 [10]
  Activity_index: 1.69
CHO-K1 [11]
  Activity: <= 30%
CHO-K1 [12]
  Activity: Non-Toxic
[13]
  degraded at 4 h: 30%
CHO-K1 [14]
  Activity: Non-Toxic
Macrophage [3]
  inhibition at 25 µM: 76.5%
K562 [15]
  Activity: Active
CHO-K1 [16]
  Activity_index: 1.691
[17]
  Activity: inactive
Macrophage [18]
  inhibition at 6.2 µM: 41%
K562 [19]
  Activity: Active
Macrophage [4]
  inhibition at 12.5 µM: 54.2%
CHO-K1 [20]
  Activity: 14%
Mus musculus
  Activity: 50.1%

## COc1cccc2c1C(=O)c1c(O)c3c(c(O)c1C2=O)C[C@@](O)(C(=O)CO)C[C@@H]3O[C@H]1C[C@H](N)[C@H](O)[C@H](C)O1 [DOXORUBICIN]
CHO-K1 [21]
  Activity_index: 1.683

## CC(=O)Oc1ccccc1C(=O)O [ASPIRIN]
Platelet
  inhibition at 100 µM: 5%

## Cc1c(N(C)CS(=O)(=O)[O-])c(=O)n(-c2ccccc2)n1C.[Na+] [DIPYRONE SODIUM]
Mus musculus
  Activity: 35%

## O=C(N/N=C/c1cccc(Oc2no[n+]([O-])c2S(=O)(=O)c2ccccc2)c1)c1ccc(N2C(=O)c3ccccc3C2=O)cc1
Macrophage [1]
  Activity: >75%
Platelet
  inhibition at 100 µM: 84%
[8]
  Activity: Active
K562 [22]
  Activity: Active
K562 [23]
  Activity: Active
Macrophage [3]
  inhibition at 25 µM: 73.6%
[17]
  Activity: inactive
K562 [24]
  Activity: Active
Macrophage [18]
  inhibition at 6.2 µM: 61%
Macrophage [4]
  inhibition at 12.5 µM: 64.9%
Mus musculus
  Activity: 42%

## O=C(N/N=C/c1c(-c2ccccc2)no[n+]1[O-])c1ccccc1N1C(=O)c2ccccc2C1=O
Platelet
  inhibition at 100 µM: 17.2%
Mus musculus
  Activity: 36.2%

## O=C(N/N=C/c1ccc2no[n+]([O-])c2c1)c1ccccc1N1C(=O)c2ccccc2C1=O
Platelet
  inhibition at 100 µM: 0%
Mus musculus
  Activity: 30.5%
